Measured values published in patent US8518874B2, “HCV inhibitors” (Virobay, Inc., priority 2005, dated 2013).

system: HCV replication (HCV replicon RNA in Huh7/Clone A cells); test: HCV Replicon Assay; format: cell-based; details: Hepatitis C virus, Huh-7, 48 h, read-out: IC50 for inhibition of HCV replication
From the text: The HCV replicon assay is a cell-culture system that mimics in vivo HCV replication and provides a system to study HCV replication in vitro. It was created by transfecting cloned viral RNA derived from a consensus HCV genomic sequence into human Huh7 hepatoma cells that are semi-permissive for viral RNA production (Lohmann V., Korner F., Koch J.-O., Herian U., Theilmann L. and Bartenschlager R. (1999). Replication of subgenomic Hepatitis C virus RNAs in a hepatoma cell line. Science 285, 110-113 and Blight K. J., Kolykhalov A. A. and Rice C. M. (2000). Efficient initiation of HCV RNA Replication in cell culture. Science 290, […]). These transfected cell lines contain a subgenomic HCV RNA genome that includes (1) the HCV 5′NTR fused to 12 amino acids of the capsid coding region, (2) the neomycin phosphotransferase gene (Neo) as a selectable marker, (3) the internal ribosome entry site (IRES) from encephalomyocarditis virus (EMCV) that directs translation of HCV non-structural proteins (variously NS2 or NS3 to NS5B), and (4) the 3′ NTR. Replicon-containing cells autonomously and persistently replicate HCV RNA that can be measured quantitatively by real-time qPCR. Therefore, the replicon system facilitates quantitative assessment of anti-viral activity by monitoring changes in HCV RNA replication in a cell-based assay.
HCV replicon-containing cells (Huh7/Clone A) were routinely maintained in Clone A growth medium (DMEM medium [Invitrogen], supplemented with 10% Fetal Bovine Serum, 1% Non Essential Amino Acids and 1 g/L G418). Test compounds were dissolved in dimethyl sulfoxide (DMSO) to make 200× stock solutions for all doses prior to treatment.
For the HCV replicon assay, Huh7/Clone A cells were trypsinized from culture flasks, seeded in 1 ml of Clone A growth medium without G418 at 4×10^4 cells per well in 24-well plates and incubated at 37° C. in a humidified CO2 (5%) incubator overnight. Following overnight incubation, compound solutions were added into wells in the same volume (5 μl of 200× compound stock per well) to give a final DMSO concentration of 0.5%. Three wells on each plate supplemented with 5 μl of DMSO served as untreated controls. For IC50 determinations, compounds were tested at 7 serial dilutions in triplicates from the starting stock solutions. The plates were incubated at 37° C. for 48 hours. After incubation, cells were harvested, transferred to 96-well plates, and subjected to total RNA extraction using the RNA Isolation Kit (RNeasy 96, Qiagen) according to the protocol described by the manufacture's RNeasy 96 Handbook (Qiagen).
Total RNA eluted in 130 μl of RNase-free dH2O was quantitated by the RiboGreen Assay according to the supplier's protocol (Molecular Probe). Briefly, 5 μl of RNA samples were aliquoted in duplicate to a 96-well black microplate and a 96-well TaqMan Optical plate. RNA samples in the black microplate were mixed with 95 μl of diluted RiboGreen:reagent (1:250 dilution in TE buffer) and sample fluorescence was measured using a fluorescence microplate reader at standard fluorescein wavelengths (excitation ˜480 nm, emission ˜520 nm). Ribosomal RNA (Molecular Probe) was used as standard.
TaqMan quantitative PCR (RT-qPCR) was used to quantitate the amount of HCV replicon RNA in each sample. The RT-qPCR reactions were performed in 25 μl on an ABI PRISM 7900 HT Sequence Detection System (Applied Biosystems). The reaction mixture contained 5 μl of total RNA (10-100 ng), 1×TaqMan Buffer A (Applied Biosystems), 5.5 mM MgCl2, 1.2 mM dNTP mix, 0.625 U of AmpliTaq Gold (Applied Biosystems), 5 U of MMLV reverse transcriptase (Promega), 5 U of rRNasin (Promega), 300 nM each of the forward and reverse primers, and 100 nM TaqMan MGB probe. […]

SMILES | IC50
CC(C)(C)NC(=O)N[C@H](C(=O)N1CC(Oc2ccc(Cl)cn2)C[C@H]1C(=O)N[C@@H](CC1CCC1)C(=O)C(=O)NC1CC1)C(C)(C)C (stereo partly drawn) [Compound 3, 1-[2S-(3-tert-butylureido)-3,3-dimethylbutyryl]-4R-(5-chloropyridin-2-yloxy)-pyrrolidine-2S-carboxylic acid (1S-cyclobutylmethyl-2-cyclopropylcarbamoyl-2-oxoethyl)-amide] | < 50 µM
CCC[C@H](NC(=O)[C@@H]1C[C@@H](Oc2ccc(Cl)cn2)CN1C(=O)[C@@H](NC(=O)OC(C)(C)C)C(C)(C)C)C(=O)C(=O)NC1CC1 [Compound 6, {1S-[4R-(5-chloropyridin-2-yloxy)-2S-(1S-cyclopropylaminooxalylbutyl-carbamoyl)-pyrrolidine-1-carbonyl]-2,2-dimethyl-propyl}-carbamic acid tent-butyl ester] | < 50 µM
CC(C)(C)OC(=O)N[C@H](C(=O)N1C[C@H](Oc2ccc(Cl)cn2)C[C@H]1C(=O)N[C@@H](CC1CCC1)C(=O)C(=O)NC1CC1)C(C)(C)C [Compound 7, {1S-[4R-(5-chloropyridin-2-yloxy)-2S-(1S-cyclobutylmethyl-2-cyclopropylcarbamoyl-2-oxo-ethylcarbamoyl)-pyrrolidine-1-carbonyl]-2,2-dimethyl-propyl}-carbamic acid tert-butyl ester] | < 50 µM

same assay, conditions: Hepatitis C virus, Huh-7; HCV replicon-containing Huh7/Clone A cells, 48 hours incubation, replicon RNA by RT-qPCR normalized to total RNA; read-out: IC50 for inhibition of HCV replication

SMILES | IC50
CCC[C@H](NC(=O)[C@@H]1C[C@@H](Oc2ccc(Cl)cn2)CN1C(=O)[C@@H](NC(=O)NC(C)(C)C)C(C)(C)C)C(=O)C(=O)NC1CC1 [Compound 8, 1-[2-(3-tert-butylureido)-3,3-dimethyl-butyryl]-4-(5-chloro-pyridin-2-yloxy)-pyrrolidine-2-carboxylic acid (1-cyclopropylaminooxalyl-butyl)-amide] | < 10 µM
COc1ccc2c(OC3C[C@@H](C(=O)N[C@@H](CC4CC4)C(=O)C(=O)NC4CC4)N(C(=O)[C@@H](NC(=O)NC(C)(C)C)C(C)(C)C)C3)nccc2c1 (stereo partly drawn) [Compound 10, 1-[2S-(3-tert-Butyl-ureido)-3,3-dimethyl-butyryl]-4R-(6-methoxy-isoquinolin-1-yloxy)-pyrrolidine-2S-carboxylic acid (2-cyclopropylcarbamoyl-1S-cyclopropylmethyl-2-oxo-ethyl)-amide] | < 10 µM
CCOc1ccc2c(OC3C[C@@H](C(=O)N[C@@H](CC4CC4)C(=O)C(=O)NC4CC4)N(C(=O)[C@@H](NC(=O)NC(C)(C)C)C(C)(C)C)C3)nccc2c1 (stereo partly drawn) [Compound 11, 1-[2S-(3-tert-Butyl-ureido)-3,3-dimethyl-butyryl]-4R-(6-ethoxy-isoquinolin-1-yloxy)-pyrrolidine-2-carboxylic acid (2-cyclopropylcarbamoyl-1S-cyclopropylmethyl-2S-oxo-ethyl)-amide] | < 10 µM
CCC[C@H](NC(=O)[C@@H]1CC(Oc2nccc3cc(OCC)ccc23)CN1C(=O)[C@@H](NC(=O)NC(C)(C)C)C(C)(C)C)C(=O)C(=O)NC1CC1 (stereo partly drawn) [Compound 12, 1-[2S-(3-tert-Butyl-ureido)-3,3-dimethyl-butyryl]-4R-(6-ethoxy-isoquinolin-1-yloxy)-pyrrolidine-2S-carboxylic acid (1S-cyclopropylaminooxalyl-butyl)-amide] | < 10 µM
CCCC[C@H](NC(=O)[C@@H]1CC(Oc2nccc3cc(OC)ccc23)CN1C(=O)[C@@H](NC(=O)NC(C)(C)C)C(C)(C)C)C(=O)C(=O)NC1CC1 (stereo partly drawn) [Compound 13, 1-[2S-(3-tert-Butyl-ureido)-3,3-dimethyl-butyryl]-4R-(6-methoxy-isoquinolin-1-yloxy)-pyrrolidine-2S-carboxylic acid (1S-cyclopropylaminooxalyl-pentyl)-amide] | < 10 µM
